Reference: the supplement of paper PMC10307832

Assays:
Assay in all cases: relative viability (nuclei count vs DMSO), 5 days (fraction); higher = more cells survive
[1] = compound: CN(C)C/C=C/C(=O)Nc1cc2c(Nc3ccc(F)c(Cl)c3)ncnc2cc1O[C@H]1CCOC1 [Afatinib] + CC1(C)CCC(c2ccc(Cl)cc2)=C(CN2CCN(c3ccc(C(=O)NS(=O)(=O)c4ccc(N[C@H](CCN5CCOCC5)CSc5ccccc5)c(S(=O)(=O)C(F)(F)F)c4)cc3)CC2)C1 [Navitoclax] (partner 0.5 µM)
In short: (§1)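 Five library-drug doses in √10 steps were combined with a fixed anchor-drug dose, or a single drug was given alone, by pin tool to lung cancer cell lines in 1536-well plates the day after seeding. Nuclei were stained and counted after 5 days. Relative viability is the nuclei count in treated wells over that in vehicle wells, taken as the median of duplicate plates.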

[2] = compound: CN(C)C/C=C/C(=O)Nc1cc2c(Nc3ccc(F)c(Cl)c3)ncnc2cc1O[C@H]1CCOC1 [Afatinib] + C[C@@H](Oc1cc(-c2cnn(C3CCNCC3)c2)cnc1N)c1c(Cl)ccc(F)c1Cl [Crizotinib] (partner 1 µM)
In short: as §1

[3] = compound: CN(C)C/C=C/C(=O)Nc1cc2c(Nc3ccc(F)c(Cl)c3)ncnc2cc1O[C@H]1CCOC1 [Afatinib] + Cc1nc(Nc2ncc(C(=O)Nc3c(C)cccc3Cl)s2)cc(N2CCN(CCO)CC2)n1 [Dasatinib] (partner 0.075 µM)
In short: as §1

[4] = compound: CN(C)C/C=C/C(=O)Nc1cc2c(Nc3ccc(F)c(Cl)c3)ncnc2cc1O[C@H]1CCOC1 [Afatinib] + O=C(CCCCCCC(=O)Nc1ccccc1)NO [Vorinostat] (partner 1 µM)
In short: as §1

| Cell Line | relative viability ([1]; first compound 0.005 µM) | relative viability ([1]; first compound 0.01581 µM) | relative viability ([1]; first compound 0.05 µM) | relative viability ([1]; first compound 0.1581 µM) | relative viability ([1]; first compound 0.5 µM) | relative viability ([2]; first compound 0.005 µM) | relative viability ([2]; first compound 0.01581 µM) | relative viability ([2]; first compound 0.05 µM) | relative viability ([2]; first compound 0.1581 µM) | relative viability ([2]; first compound 0.5 µM) | relative viability ([3]; first compound 0.005 µM) | relative viability ([3]; first compound 0.01581 µM) | relative viability ([3]; first compound 0.05 µM) | relative viability ([3]; first compound 0.1581 µM) | relative viability ([3]; first compound 0.5 µM) | relative viability ([4]; first compound 0.005 µM) | relative viability ([4]; first compound 0.01581 µM) | relative viability ([4]; first compound 0.05 µM) | relative viability ([4]; first compound 0.1581 µM) | relative viability ([4]; first compound 0.5 µM) |
| --- | --- | --- | --- | --- | --- | --- | --- | --- | --- | --- | --- | --- | --- | --- | --- | --- | --- | --- | --- | --- |
| NCI-H2087 | 0.996 | 0.957 | 1.11 | 0.837 | 0.925 | 0.985 | 0.933 | 0.93 | 0.845 | 1.02 | 0.992 | 0.804 | 0.825 | 0.852 | 0.715 | 0.658 | 0.625 | 0.968 | 0.91 | 0.592 |
| NCI-H2228 | 0.864 | 0.906 | 0.865 | – | 0.51 | 0.455 | 0.46 | 0.345 | – | 0.34 | 0.619 | 0.56 | 0.55 | 0.41 | 0.634 | 0.928 | 0.444 | 0.566 | 0.698 | 0.462 |
| NCI-H727 | 0.371 | 0.349 | 0.407 | 0.345 | 0.353 | 0.804 | 0.802 | 0.53 | 0.541 | 0.583 | 0.366 | – | 0.204 | 0.282 | 0.249 | 1.08 | 0.953 | 1 | 0.906 | 0.956 |
| NCI-H650 | – | – | – | – | – | 0.856 | 0.674 | 0.72 | 1.01 | 0.683 | 0.559 | 0.428 | 0.481 | 0.599 | 0.411 | 0.469 | 0.395 | 0.551 | 0.515 | 0.316 |
| NCI-H520 | 1.21 | 1.15 | 1.02 | 1.1 | 1.11 | 1.33 | 0.851 | 0.832 | 0.749 | 0.737 | 0.199 | 0.178 | 0.19 | 0.225 | 0.14 | 0.807 | 0.707 | 0.639 | 0.698 | 0.717 |
| EBC-1 | 0.507 | 0.457 | 0.465 | 0.396 | 0.343 | 0.193 | 0.174 | 0.191 | 0.189 | 0.209 | – | – | – | – | – | – | – | – | – | – |
| NCI-H661 | – | – | – | – | – | 1.25 | 1.03 | 0.996 | 0.838 | 0.773 | 0.858 | 0.527 | 0.375 | 0.341 | 0.332 | 0.867 | 0.738 | 0.755 | 0.64 | 0.63 |
| NCI-H1299 | 1.02 | 1.02 | 1.13 | 1.11 | 1.06 | 1.01 | 0.961 | 0.983 | 0.97 | 0.934 | – | – | – | – | – | – | – | – | – | – |
| LK-2 | 1.02 | 0.779 | 0.868 | 0.883 | 0.835 | 0.201 | – | 0.195 | 0.234 | 0.243 | 0.26 | 0.359 | 0.28 | 0.216 | 0.269 | 0.349 | 0.269 | 0.277 | 0.2 | 0.382 |
| NCI-H1993 | 0.674 | 0.722 | 0.735 | 0.788 | 0.704 | 0.647 | 0.732 | 0.656 | 0.76 | 0.771 | 0.459 | 0.561 | 0.585 | 0.729 | 0.576 | 0.662 | 0.437 | 0.731 | 0.466 | 0.541 |
| NCI-H838 | 1.12 | 1.14 | 1.27 | 1.2 | 1.16 | 0.782 | 0.87 | 0.901 | 0.791 | 0.937 | 0.33 | 0.319 | 0.331 | 0.203 | 0.269 | 0.695 | 0.74 | 0.74 | 0.639 | 0.801 |
| NCI-H1648 | – | – | – | – | – | – | – | – | – | – | – | – | – | – | – | 0.398 | 0.421 | 0.271 | 0.421 | 0.26 |
| LCLC-103H | – | – | – | – | – | 1 | 1.14 | 1.03 | 0.911 | 1.17 | 0.424 | 0.454 | 0.48 | 0.459 | 0.483 | 0.809 | 0.817 | 0.703 | 0.732 | 0.704 |
| SW 900 | – | – | – | – | – | – | – | – | – | – | 0.622 | 0.323 | 0.683 | 0.547 | 0.435 | 0.597 | 0.364 | 0.544 | 0.428 | 0.461 |
| IA-LM | 0.689 | 0.821 | 0.906 | 0.796 | 0.933 | 1.12 | 0.728 | 1.04 | 0.74 | 1.11 | – | – | – | – | – | 1.1 | 0.964 | 0.866 | 0.81 | 0.892 |
| NCI-H1563 | – | – | – | – | – | 0.844 | 0.835 | 0.872 | 0.795 | 0.882 | 0.476 | 0.435 | 0.437 | 0.501 | 0.451 | – | – | – | – | – |
| HCC-44 | 1.01 | 1.01 | 1.02 | 0.899 | 1.13 | 0.902 | 0.866 | 0.786 | 0.782 | 0.847 | – | – | – | – | – | 1.18 | 1.09 | 1.18 | 1.1 | 1.05 |
| NCI-H358 | – | – | – | – | – | 0.541 | 0.423 | 0.387 | 0.241 | 0.256 | 0.125 | 0.111 | 0.113 | 0.156 | 0.128 | 0.514 | 0.432 | 0.375 | 0.207 | 0.253 |
| ABC-1 | – | – | – | – | – | 1.29 | 0.98 | 1.3 | 0.885 | 1.13 | 0.559 | 0.58 | 0.621 | 0.472 | 0.516 | 1.47 | – | 1.13 | 1.24 | 1.08 |
| NCI-H522 | – | – | – | – | – | – | – | – | – | – | 0.877 | 0.992 | 0.712 | 0.733 | 0.692 | 0.865 | 0.928 | 0.829 | 0.7 | 0.721 |
| NCI-H1792 | 0.745 | 0.537 | 0.587 | 0.629 | 0.625 | 1.04 | 1.01 | 0.977 | 0.907 | 0.856 | 0.657 | 0.84 | 0.748 | 0.657 | 0.911 | – | – | – | – | – |
